Reference: patent publication US20080255143A1, “Inhibitors of Akt Activity” (SMITHKLINE BEECHAM CORPORATION, priority 2003, published 2008)
Structures can show the parent of a compound that is named as a salt.

What was measured:
Assay type in all cases: biochemical
Settings in all cases: catalytic domain, 10 nM activated enzyme, 4 uM ATP, 8 uM peptide, 40 minutes at room temperature
[1] = target: T1, delta-PH AKT2 (Homo sapiens, UniProt P31751); experiment: AKT enzyme assay (substrate phosphorylation, SPA), AKT2
T1 construct: His-tagged AKT2 (aa 138-481) and His-tagged AKT3 (aa 135-479) were isolated; His; made in house; host or cells: insect cells (only by 'in a similar fashion' to AKT1)
Description: (§1) His-tagged AKT2 (aa 138-481) and His-tagged AKT3 (aa 135-479) were isolated and purified in a similar fashion.
(§2) Compounds of the present invention were tested for AKT 1, 2, and 3 protein serine kinase inhibitory activity in substrate phosphorylation assays. This assay examines the ability of small molecule organic compounds to inhibit the serine phosphorylation of a peptide substrate. The substrate phosphorylation assays use the catalytic domains of AKT 1, 2, or 3. […] Substrate phosphorylation was detected by the following procedure:
(§3) Assays were performed in 384 well U-bottom white plates. […] The reaction was stopped by the addition of 50 ul SPA bead mix (Dulbecco's PBS without Mg^2+ and Ca^2+, 0.1% Triton X-100, 5 mM EDTA, 50 uM ATP, 2.5 mg/ml Streptavidin-coated SPA beads.) The plate was sealed, the beads were allowed to settle overnight, and then the plate was counted in a Packard Topcount Microplate Scintillation Counter (Packard Instrument Co., Meriden, Conn.).
(§4) The data for dose responses were plotted as % Control calculated with the data reduction formula 100*(U1-C2)/(C1-C2) versus concentration of compound where U is the unknown value, C1 is the average control value obtained for DMSO, and C2 is the average control value obtained for 0.1M EDTA. […]

[2] = target: T2, delta-PH AKT1 (Homo sapiens, UniProt P31749); experiment: AKT enzyme assay (substrate phosphorylation, SPA), AKT1
T2 construct: Insect cells expressing His-tagged AKT1 (aa 136-480) were lysed; His; made in house; host or cells: insect cells
Description: Insect cells expressing His-tagged AKT1 (aa 136-480) were lysed in 25 mM HEPES, 100 mM NaCl, 20 mM imidazole; pH 7.5 using a polytron (5 mLs lysis buffer/g cells). Cell debris was removed by centrifuging at 28,000×g for 30 minutes. The supernatant was filtered through a […] filter then loaded onto a nickel-chelating column pre-equilibrated with lysis buffer. The column was washed with 5 column volumes (CV) of lysis buffer then with 5 CV of 20% buffer B, where buffer B is 25 mM HEPES, 100 mM NaCl, 300 mM imidazole; pH 7.5. His-tagged AKT1 (aa 136-480) was eluted with a 20-100% linear gradient of buffer B over 10 CV. His-tagged AKT1 (136-480) eluting fractions were pooled and diluted 3-fold with buffer C, where buffer C is 25 mM HEPES, pH 7.5. […]
Compounds of the present invention were tested for AKT 1, 2, and 3 protein serine kinase inhibitory activity in substrate phosphorylation assays. […] Substrate phosphorylation was detected by the following procedure:
as §3, with “Conn.). […]” for “Conn.).”

[3] = target: T3, delta-PH AKT3 (Homo sapiens, UniProt Q9Y243); experiment: AKT enzyme assay (substrate phosphorylation, SPA), AKT3
T3 construct: His-tagged AKT2 (aa 138-481) and His-tagged AKT3 (aa 135-479) were isolated; His; made in house; host or cells: insect cells (only by 'in a similar fashion' to AKT1)
Description: as §1, §2, §3, §4

T1 sequence (P31751 138-481): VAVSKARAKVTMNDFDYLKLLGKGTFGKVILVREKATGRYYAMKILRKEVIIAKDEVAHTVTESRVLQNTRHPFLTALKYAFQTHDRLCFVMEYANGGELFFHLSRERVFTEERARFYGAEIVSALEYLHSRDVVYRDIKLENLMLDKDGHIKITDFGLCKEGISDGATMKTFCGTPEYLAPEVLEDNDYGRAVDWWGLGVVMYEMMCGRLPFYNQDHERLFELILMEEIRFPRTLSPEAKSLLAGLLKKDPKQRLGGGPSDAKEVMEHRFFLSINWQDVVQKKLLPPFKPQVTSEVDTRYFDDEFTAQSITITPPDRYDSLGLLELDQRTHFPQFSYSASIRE
T3 sequence (Q9Y243 135-479): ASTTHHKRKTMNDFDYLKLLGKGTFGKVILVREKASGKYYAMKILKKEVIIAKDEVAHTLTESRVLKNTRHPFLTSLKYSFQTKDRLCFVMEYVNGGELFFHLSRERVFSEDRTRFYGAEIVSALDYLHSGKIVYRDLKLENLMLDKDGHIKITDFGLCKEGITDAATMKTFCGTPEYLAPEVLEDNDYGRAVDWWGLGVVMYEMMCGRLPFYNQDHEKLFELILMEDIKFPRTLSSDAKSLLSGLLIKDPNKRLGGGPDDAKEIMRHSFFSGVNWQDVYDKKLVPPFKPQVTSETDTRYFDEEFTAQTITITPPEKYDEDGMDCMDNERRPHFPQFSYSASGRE
T2 sequence (P31749 136-480): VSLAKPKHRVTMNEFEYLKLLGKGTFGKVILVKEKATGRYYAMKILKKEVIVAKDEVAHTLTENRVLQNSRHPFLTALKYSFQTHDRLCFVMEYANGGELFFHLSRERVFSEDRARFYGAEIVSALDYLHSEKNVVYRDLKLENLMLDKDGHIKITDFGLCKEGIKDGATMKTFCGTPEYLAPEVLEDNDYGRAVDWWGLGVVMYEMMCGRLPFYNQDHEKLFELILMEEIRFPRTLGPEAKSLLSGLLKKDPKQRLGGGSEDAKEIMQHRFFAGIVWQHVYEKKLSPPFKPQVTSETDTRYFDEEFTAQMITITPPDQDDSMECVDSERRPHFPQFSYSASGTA

## CCn1c(-c2nonc2N)nc2c(-c3cccc(Cl)c3)ncc(NCCCNC[C@H](O)CO)c21 [Example 236, (S)-3-[3-[2-(4-amino-furazan-3-yl)-4-(3-chloro-phenyl)-1-ethyl-1H-imidazo[4,5-c]pyridin-7-ylamino]-propylamino]-propane-1,2-diol trifluoroacetate]
[1]
  IC50: 0.038 µM
[2]
  IC50: 0.069 µM
[3]
  IC50: 0.032 µM
